# Legend:
# [1] = molecular target: T1, Human Topoisomerase IIα (Homo sapiens, UniProt P11388); assay: Topoisomerase II relaxation assay (supercoiled pBR322); type: biochemical; conditions: for inhibition at 20 µM: 20 μM compound, read-out: Topo II Inhibition (%) 20 μM; for inhibition at 100 µM: 100 μM compound, read-out: Topo II Inhibition (%) 100 μM
# T1 construct: purchased USB, Affymetrix, Waltham, MA, USA
# Protocol: The effect of the tested compounds on Topo I and II activities were evaluated by Topo I/II relaxation assays. The reaction products, relaxed DNA could be distinguished from supercoiled DNA by gel electrophoresis and visualized using gel imaging system. Human Topoisomerase IIα activity was detected by measuring the relaxation of supercoiled pBR322 plasmid DNA [22]. […] For inhibition studies, the compounds were pre-incubated with human Topo IIα and DNA for 15 min. Compounds were used at the appropriate concentrations by dissolving in 2% (v/v) DMSO. DMSO didn't show detrimental effect on the enzyme activity at concentration up to 2% (v/v). Reaction mixture was incubated at 37 °C for 30 min and stopped by the addition of 7 mM EDTA. Reaction product was mixed with DNA loading dye and electrophoresed on 1% TAE-Agarose. The gel was stained with ethidium bromide (0.5 μg/mL) for 30 min, destained twice in 1× TAE buffer, and then visualized using a BIO-RAD Gel Doc XR+ System. Etoposide (VP-16) was co-assayed as a positive control.
# [2] = test system: HepG2 cells; assay: MTT cytotoxicity assay, HepG2; type: cell-based, human; conditions: 48 h exposure
# Protocol: (§1) The in vitro cytotoxic activities of synthesized compounds were evaluated against two human hepatocarcinoma cell lines (SMMC-7721 and HepG2) and the human normal hepatocyte cell line (LO2) via MTT assay. All tested compounds were dissolved in DMSO and the stock solutions were diluted by DMEM medium before treatment of the cultured cells. […] Cell lines were obtained from American Tissue Culture Collection (ATCC). Briefly, different tumor cells were grown in DMEM medium supplemented with 10% fetal bovine serum, penicillin (100 U/mL), and streptomycin (50 μg/mL). Cells were harvested at log phase of growth and seeded in 96-well plates (100 μL/well at a density of 2 × 10^5 cells/mL). After 24 h incubation at 37 °C and 5% CO2 to allow cell attachment, cultures were exposed to various concentrations of the isolated compounds for 48 h. Finally, MTT solution (2.5 mg/mL in PBS) was added (40 μL/well). Plates were further incubated for 4 h at 37 °C, and the formazan crystals formed were dissolved by adding 150 μL/well of DMSO. Absorption at 570 nm was measured with an ELISA plate reader. […] Doxorubicin, camptothecin, and etoposide (VP-16) were co-assayed as positive controls.
# [3] = molecular target: T2, DNA topoisomerase I (Bos taurus, UniProt F1MN93); assay: Topoisomerase I relaxation assay (supercoiled pBR322); type: biochemical; conditions: for inhibition at 20 µM: 20 μM compound, read-out: Topo I Inhibition (%) 20 μM; for inhibition at 100 µM: 100 μM compound, read-out: Topo I Inhibition (%) 100 μM
# T2 construct: purchased TaKaRa, Kyoto, Japan
# T2 sequence (F1MN93 1-767): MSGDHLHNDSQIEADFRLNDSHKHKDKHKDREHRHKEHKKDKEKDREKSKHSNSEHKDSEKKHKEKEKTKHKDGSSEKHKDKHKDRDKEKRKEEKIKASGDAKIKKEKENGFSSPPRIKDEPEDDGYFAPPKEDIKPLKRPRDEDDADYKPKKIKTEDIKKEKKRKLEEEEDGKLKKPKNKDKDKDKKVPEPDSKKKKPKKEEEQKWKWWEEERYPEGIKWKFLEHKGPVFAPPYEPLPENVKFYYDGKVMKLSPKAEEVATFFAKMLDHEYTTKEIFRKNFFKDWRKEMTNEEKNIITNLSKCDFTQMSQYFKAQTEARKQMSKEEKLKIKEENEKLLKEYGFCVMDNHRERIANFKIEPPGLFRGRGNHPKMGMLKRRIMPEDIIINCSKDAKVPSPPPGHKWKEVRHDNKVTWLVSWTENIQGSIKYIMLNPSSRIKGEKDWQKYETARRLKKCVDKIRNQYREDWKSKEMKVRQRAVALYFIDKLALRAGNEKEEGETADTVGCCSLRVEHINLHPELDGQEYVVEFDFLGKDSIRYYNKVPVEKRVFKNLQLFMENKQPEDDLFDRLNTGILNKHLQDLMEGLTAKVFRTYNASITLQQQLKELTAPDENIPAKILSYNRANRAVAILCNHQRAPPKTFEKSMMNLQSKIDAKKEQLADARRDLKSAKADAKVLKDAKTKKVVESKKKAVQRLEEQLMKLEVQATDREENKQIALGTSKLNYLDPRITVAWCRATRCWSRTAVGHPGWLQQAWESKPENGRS
# Protocol: The effect of the tested compounds on Topo I and II activities were evaluated by Topo I/II relaxation assays. The reaction products, relaxed DNA could be distinguished from supercoiled DNA by gel electrophoresis and visualized using gel imaging system. The activity of DNA topoisomerase I (TaKaRa, Kyoto, Japan) was determined by measuring the relaxation of supercoiled DNA pBR322 [32]. Camptothecin was used as a positive control. The reaction mixture was prepared according to the manufacture's protocol, and incubated at 37 °C for 30 min. The reactions were terminated by adding dye solution containing 1% SDS, 0.02% bromophenol blue and 50% glycerol. The mixtures were applied to 1% agarose gel and subjected to electrophoresis for 1 h, in 1× TAE buffer (40 mM Tris-acetate, 1 mM EDTA). Gels were stained for 30 min in 60 mL 1× TAE buffer with ethidium bromide (0.5 μg/mL). DNA bands were visualized by transillumination with UV light and then photographed by a Gel Doc XR+ System (BIO-RAD, Hercules, CA, USA).
# [4] = test system: LO2 cells; assay: MTT cytotoxicity assay, normal hepatocyte LO2; type: cell-based; conditions: Homo sapiens, L02, 48 h exposure, normal hepatocyte cell line
# Protocol: as §1
# [5] = test system: SMMC-7721 cells; assay: MTT cytotoxicity assay, SMMC-7721; type: cell-based, human; conditions: 48 h exposure
# Protocol: as §1
# T1 sequence (P11388 whole entry): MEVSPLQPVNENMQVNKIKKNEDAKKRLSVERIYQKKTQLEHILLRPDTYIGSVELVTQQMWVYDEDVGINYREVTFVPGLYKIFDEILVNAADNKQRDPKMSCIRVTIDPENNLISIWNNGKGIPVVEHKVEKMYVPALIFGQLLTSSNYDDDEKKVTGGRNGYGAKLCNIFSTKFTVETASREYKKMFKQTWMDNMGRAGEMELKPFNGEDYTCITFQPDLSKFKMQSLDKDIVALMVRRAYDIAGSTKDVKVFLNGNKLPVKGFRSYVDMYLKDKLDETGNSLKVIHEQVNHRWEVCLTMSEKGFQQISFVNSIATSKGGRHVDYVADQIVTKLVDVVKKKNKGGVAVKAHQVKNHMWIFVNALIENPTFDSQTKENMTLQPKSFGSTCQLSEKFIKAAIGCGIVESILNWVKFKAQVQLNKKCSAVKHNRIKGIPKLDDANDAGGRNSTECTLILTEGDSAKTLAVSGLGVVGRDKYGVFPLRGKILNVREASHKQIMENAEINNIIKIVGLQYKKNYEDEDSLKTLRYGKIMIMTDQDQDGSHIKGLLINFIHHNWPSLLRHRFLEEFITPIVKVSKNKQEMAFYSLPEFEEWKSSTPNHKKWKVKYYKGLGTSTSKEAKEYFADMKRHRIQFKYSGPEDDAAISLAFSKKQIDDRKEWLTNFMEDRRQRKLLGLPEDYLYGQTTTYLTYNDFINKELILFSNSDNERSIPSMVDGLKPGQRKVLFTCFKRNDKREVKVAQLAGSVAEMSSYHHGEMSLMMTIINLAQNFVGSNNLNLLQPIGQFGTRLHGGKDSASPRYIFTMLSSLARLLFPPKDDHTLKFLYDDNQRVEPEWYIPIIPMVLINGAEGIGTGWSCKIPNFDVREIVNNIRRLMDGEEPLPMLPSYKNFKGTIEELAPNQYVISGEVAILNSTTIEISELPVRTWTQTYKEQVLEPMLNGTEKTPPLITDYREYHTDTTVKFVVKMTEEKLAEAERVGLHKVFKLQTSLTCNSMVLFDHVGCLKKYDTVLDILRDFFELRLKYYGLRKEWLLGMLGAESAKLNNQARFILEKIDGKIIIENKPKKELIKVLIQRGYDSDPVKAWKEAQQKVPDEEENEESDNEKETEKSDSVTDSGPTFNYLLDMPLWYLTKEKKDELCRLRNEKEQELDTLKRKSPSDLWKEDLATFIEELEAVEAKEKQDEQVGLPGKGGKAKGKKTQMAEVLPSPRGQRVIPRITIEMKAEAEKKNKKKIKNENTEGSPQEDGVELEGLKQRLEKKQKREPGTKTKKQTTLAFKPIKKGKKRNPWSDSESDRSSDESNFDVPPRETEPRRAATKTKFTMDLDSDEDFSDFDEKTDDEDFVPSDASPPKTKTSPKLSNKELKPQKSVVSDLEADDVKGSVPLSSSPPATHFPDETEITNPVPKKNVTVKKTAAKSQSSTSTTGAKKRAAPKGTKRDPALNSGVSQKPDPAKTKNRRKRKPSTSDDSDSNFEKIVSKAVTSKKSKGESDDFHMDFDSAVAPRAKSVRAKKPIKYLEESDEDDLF
Structure (SMILES),inhibition at 20 µM [1],inhibition at 100 µM [1],melting point,inhibition at 20 µM [3],inhibition at 100 µM [3],IC50 [2],"IC50 ([2]; Homo sapiens, HepG2, 48 h)",IC50 [4],IC50 [5],"IC50 ([5]; Homo sapiens, SMMC-7721, 48 h)"
"Cc1ccc2[nH]c3c(c2c1)C[C@@]1(C)C(CC[C@]2(C)C1CC=C1C4[C@@H](C)[C@H](C)CC[C@]4(C(=O)NCCN4CCCCC4)CC[C@]12C)C3(C)C (stereo partly drawn) [4d, N-(2-(Piperidin-1-yl)ethyl)-5′-methyl-1′H-ursa-2,12-dieno[3,2-b]indol-28-carboxamide]",32.7%,71.7%,195 to 197 °C,0%,13%,1.47 ± 0.12 µM,~1 µM,16 ± 1.07 µM,1.75 ± 0.11 µM,~1 µM
"Cc1ccc2[nH]c3c(c2c1)C[C@@]1(C)C(CC[C@]2(C)C1CC=C1C4[C@@H](C)[C@H](C)CC[C@]4(C(=O)NCCCCN4CCOCC4)CC[C@]12C)C3(C)C (stereo partly drawn) [6e, N-(4-Morpholinobutyl)-5′-methyl-1′H-ursa-2,12-dieno[3,2-b]indol-28-carboxamide]",28.2%,65.6%,,,0%,,7.84 ± 2.31 µM,35.4 ± 3.13 µM,,4.55 ± 1.56 µM
"CC[C@@]1(O)C(=O)OCc2c1cc1n(c2=O)Cc2cc3ccccc3nc2-1 [CPT, camptothecin, reference compound]",,,,38.2%,75.1%,,1.12 ± 0.26 µM,8.93 ± 0.52 µM,,0.56 ± 0.18 µM
"COc1cccc2c1C(=O)c1c(O)c3c(c(O)c1C2=O)C[C@@](O)(C(=O)CO)C[C@@H]3O[C@H]1C[C@H](N)[C@H](O)[C@H](C)O1 [DOX, doxorubicin, reference compound]",,,,,,,0.81 ± 0.19 µM,5.32 ± 0.67 µM,,0.68 ± 0.11 µM
"COc1cc([C@@H]2c3cc4c(cc3[C@@H](O[C@@H]3O[C@@H]5CO[C@@H](C)O[C@H]5[C@H](O)[C@H]3O)[C@H]3COC(=O)[C@H]23)OCO4)cc(OC)c1O [VP-16, etoposide, reference compound]",47.8%,88.5%,,,,,0.57 ± 0.16 µM,5.92 ± 0.29 µM,,0.36 ± 0.1 µM
"CCN(CC)CCNC(=O)[C@]12CC[C@@H](C)[C@H](C)C1C1=CCC3[C@@]4(C)Cc5c([nH]c6ccc(C)cc56)C(C)(C)C4CC[C@@]3(C)[C@]1(C)CC2 (stereo partly drawn) [4c, N-(2-(Diethylamino)ethyl)-5′-methyl-1′H-ursa-2,12-dieno[3,2-b]indol-28-carboxamide]",38.3%,68.7%,,,0%,,2.24 ± 0.32 µM,26.4 ± 1.32 µM,,2.1 ± 0.21 µM

# The next lines start with results.
inhibition at 20 µM [1],inhibition at 100 µM [1],melting point,inhibition at 20 µM [3],inhibition at 100 µM [3],Structure (SMILES),IC50 [2],"IC50 ([2]; Homo sapiens, HepG2, 48 h)",IC50 [4],IC50 [5],"IC50 ([5]; Homo sapiens, SMMC-7721, 48 h)"
9.7%,23.8%,301 to 303 °C,,0%,"Cc1ccc2[nH]c3c(c2c1)C[C@@]1(C)C(CC[C@]2(C)C1CC=C1C4[C@@H](C)[C@H](C)CC[C@]4(C(=O)NCCNC(=O)[C@]45CC[C@@H](C)[C@H](C)C4C4=CCC6[C@@]7(C)Cc8c([nH]c9ccc(C)cc89)C(C)(C)C7CC[C@@]6(C)[C@]4(C)CC5)CC[C@]12C)C3(C)C (stereo partly drawn) [7a, N,N′-(ethane-1,2-diyl)-bis(5′-methyl-1′H-ursa-2,12-dieno[3,2-b]indol-28-carboxamide)]",,> 50 µM,> 50 µM,,> 50 µM
39.8%,81.8%,,,0%,"Cc1ccc2[nH]c3c(c2c1)C[C@@]1(C)C(CC[C@]2(C)C1CC=C1C4[C@@H](C)[C@H](C)CC[C@]4(C(=O)NCCCCN4CCN(C)CC4)CC[C@]12C)C3(C)C (stereo partly drawn) [6f, N-(4-(4-Methylpiperazin-1-yl)butyl)-5′-methyl-1′H-ursa-2,12-dieno[3,2-b]indol-28-carboxamide]",1.01 ± 0.12 µM,~1 µM,13.7 ± 1.28 µM,0.65 ± 0.07 µM,~1 µM
31.7%,69%,163 to 165 °C,0%,15.1%,"Cc1ccc2[nH]c3c(c2c1)C[C@@]1(C)C(CC[C@]2(C)C1CC=C1C4[C@@H](C)[C@H](C)CC[C@]4(C(=O)NCCCCN(C)C)CC[C@]12C)C3(C)C (stereo partly drawn) [6b, N-(4-(Dimethylamino)butyl)-5′-methyl-1′H-ursa-2,12-dieno[3,2-b]indol-28-carboxamide]",,2.91 ± 0.18 µM,18.2 ± 1.64 µM,,2.43 ± 0.21 µM
38.9%,75.8%,147 to 149 °C,,0%,"CCN(CC)CCCNC(=O)[C@]12CC[C@@H](C)[C@H](C)C1C1=CCC3[C@@]4(C)Cc5c([nH]c6ccc(C)cc56)C(C)(C)C4CC[C@@]3(C)[C@]1(C)CC2 (stereo partly drawn) [5c, N-(3-(Diethylamino)propyl)-5′-methyl-1′H-ursa-2,12-dieno[3,2-b]indol-28-carboxamide]",,1.2 ± 0.24 µM,15.8 ± 1.06 µM,,1.15 ± 0.14 µM
41.3%,81.1%,183 to 185 °C,,0%,"Cc1ccc2[nH]c3c(c2c1)C[C@@]1(C)C(CC[C@]2(C)C1CC=C1C4[C@@H](C)[C@H](C)CC[C@]4(C(=O)NCCCN4CCCCC4)CC[C@]12C)C3(C)C (stereo partly drawn) [5d, N-(3-(Piperidin-1-yl)propyl)-5′-methyl-1′H-ursa-2,12-dieno[3,2-b]indol-28-carboxamide]",,1.04 ± 0.09 µM,12.8 ± 0.83 µM,,0.89 ± 0.11 µM
